Measured values published in patent US20230159469A1, “NOVEL PHTHALAZINE DERIVATIVE HAVING ECTONUCLOEOTIDE PYROPHOSPHATASE/PHOSPHODIESTE RASE INHIBITORY ACTIVITY, AND USE THEREOF” (TXINNO BIOSCIENCE INC., priority 2020, published 2023).
Where a name gives a salt, the structure may show the parent alone.

Target: T1, human recombinant ENPP1 (Homo sapiens, UniProt P22413)
T1 construct: purchased R & D systems
T1 sequence (P22413 1-925): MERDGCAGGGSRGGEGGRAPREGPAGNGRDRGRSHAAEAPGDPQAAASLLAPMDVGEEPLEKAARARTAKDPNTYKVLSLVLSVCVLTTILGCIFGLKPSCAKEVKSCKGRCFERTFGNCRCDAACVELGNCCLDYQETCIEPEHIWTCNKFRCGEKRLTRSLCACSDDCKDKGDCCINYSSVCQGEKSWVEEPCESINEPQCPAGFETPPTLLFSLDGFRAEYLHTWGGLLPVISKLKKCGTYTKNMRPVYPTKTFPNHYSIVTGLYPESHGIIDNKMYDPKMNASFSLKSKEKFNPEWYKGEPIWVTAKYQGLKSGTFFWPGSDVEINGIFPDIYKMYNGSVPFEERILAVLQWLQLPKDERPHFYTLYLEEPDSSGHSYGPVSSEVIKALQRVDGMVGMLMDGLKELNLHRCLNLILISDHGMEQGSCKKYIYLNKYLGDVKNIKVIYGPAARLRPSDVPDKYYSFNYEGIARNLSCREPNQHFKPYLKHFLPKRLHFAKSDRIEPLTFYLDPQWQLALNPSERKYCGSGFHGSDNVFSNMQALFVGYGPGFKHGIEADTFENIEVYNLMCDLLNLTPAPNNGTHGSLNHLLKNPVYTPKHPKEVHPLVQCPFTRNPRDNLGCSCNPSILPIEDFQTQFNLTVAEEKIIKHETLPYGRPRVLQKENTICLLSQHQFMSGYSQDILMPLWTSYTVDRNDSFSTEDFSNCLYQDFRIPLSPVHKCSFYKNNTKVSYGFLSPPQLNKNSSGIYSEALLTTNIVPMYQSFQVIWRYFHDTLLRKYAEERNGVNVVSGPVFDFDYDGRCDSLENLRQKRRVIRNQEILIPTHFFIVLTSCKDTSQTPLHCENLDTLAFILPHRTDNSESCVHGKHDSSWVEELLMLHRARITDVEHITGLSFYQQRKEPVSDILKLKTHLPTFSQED
Assay: ENPP1 enzyme assay with cGAMP substrate (AMP-Glo luminescence)
Format: biochemical
Settings: human recombinant ENPP1 3 ng/reaction, cGAMP 5 μM, 37° C. 90 minutes, read-out: Enzymatic activity (ENPP1 IC50)
Outline: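 Human ENPP1 hydrolysis of 5 μM cGAMP was run for 90 min at 37° C in 50 mM Tris pH 8.5, 250 mM NaCl, 0.5 mM CaCl2, 1 μM ZnCl2, 5% glycerol, 1% DMSO. AMP product was quantified by AMP-Glo luminescence; IC50 came from 3-parameter fits of % residual activity, averaged over at least two runs.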

Row | IC50 | SMILES
1 | 1 to 10 µM | COc1cc2c(-c3ccc(CNS(N)(=O)=O)c(C(F)(F)F)c3)n[nH]c(=O)c2cc1OC [Compound No. 119, hydrochloride]
2 | < 1 µM | NS(=O)(=O)N1CCc2ccc(-c3n[nH]c(=O)c4ccccc34)cc2C1 [Compound No. 121, 7-(4-oxo-3,4-dihydrophthalazin-1-yl)-3,4-dihydroisoquinoline-2(1H) sulfamide hydrochloride]
3 | < 1 µM | CC(NS(N)(=O)=O)c1ccc(-c2n[nH]c(=O)c3ccccc23)cc1 (stereo not drawn) [Compound No. 123, N-(1-(4-(4-oxo-3,4-dihydrophthalazin-1-yl)phenyl)ethyl)sulfamide hydrochloride]
4 | < 1 µM | C[C@@H](NS(N)(=O)=O)c1ccc(-c2n[nH]c(=O)c3ccccc23)cc1 [Compound No. 124, (R)-N-(1-(4-(4-oxo-3,4-dihydrophthalazin-1-yl)phenyl)ethyl)sulfamide hydrochloride]
5 | 1 to 10 µM | CC(C)(NS(N)(=O)=O)c1ccc(-c2n[nH]c(=O)c3ccccc23)cc1 [Compound No. 125, N-(2-(4-(4-oxo-3,4-dihydrophthalazin-1-yl)phenyl)propan-2-yl)sulfamide hydrochloride]
6 | < 1 µM | NS(=O)(=O)NCc1ccc(-c2n[nH]c(=O)c3ccccc23)cc1C(F)(F)F [Compound No. 126, N-(4-(4-oxo-3,4-dihydrophthalazin-1-yl)-2-(trifluoromethyl)benzyl)sulfamide hydrochloride]
7 | < 1 µM | CN(Cc1ccc(-c2n[nH]c(=O)c3ccccc23)cc1)S(N)(=O)=O [Compound No. 127, N-methyl-N-(4-(4-oxo-3,4-dihydrophthalazin-1-yl)benzyl)sulfamide]
8 | 1 to 10 µM | NS(=O)(=O)N1CCc2cc(-c3n[nH]c(=O)c4ccccc34)ccc2C1 [Compound No. 128, 6-(4-oxo-3,4-dihydrophthalazin-1-yl-3,4-dihydroisoquinoline-2(1H)-sulfonamide hydrochloride]
9 | 1 to 10 µM | Cn1nc(-c2ccc3c(c2)CCN(S(N)(=O)=O)C3)c2ccccc2c1=O [Compound No. 129, 6-(3-methyl-4-oxo-3,4-dihydrophthalazin-1-yl)-3,4-dihydroisoquinoline-2(1H)-sulfonamide hydrochloride]
10 | < 1 µM | NS(=O)(=O)NCC1CCN(c2n[nH]c(=O)c3ccccc23)CC1 [Compound No. 138, N-((1-(4-oxo-3,4-dihydrophthalazin-1-yl)piperidin-4-yl)methyl)sulfamide hydrochloride]
11 | > 10 µM | NS(=O)(=O)NCCC1CCN(c2n[nH]c(=O)c3ccccc23)CC1 [Compound No. 142, N-(2-(1-(4-oxo-3,4-dihydrophthalazin-1-yl)piperidin-4-yl)ethyl)sulfamide trifluoroacetic acid]
12 | > 10 µM | O=c1[nH]nc(Cc2ccccc2)c2ccccc12 [Compound No. 143, 4-benzylphthalazin-1(2H)-one]
13 | > 10 µM | CC(C)(C)OC(=O)Nc1ccc(Cc2n[nH]c(=O)c3ccccc23)cc1 [Compound No. 147, tert-butyl (4-((4-oxo-3,4-dihydrophthalazin-1-yl)methyl)phenyl)carbamate]
14 | > 10 µM | CN(C(=O)OC(C)(C)C)c1ccc(Cc2n[nH]c(=O)c3ccccc23)cc1 [Compound No. 151, tert-butyl (4-((4-oxo-3,4-dihydrophthalazin-1-yl)methyl)phenyl) (methyl)carbamate]

The next lines start with the molecule.

Row | SMILES | IC50
15 | COc1cc2c(-c3ccc(CN(C)S(N)(=O)=O)c(C(F)(F)F)c3)n[nH]c(=O)c2cc1OC [Compound No. 120, hydrochloride] | > 10 µM
16 | COc1cc2c(-c3ccc4c(c3)CN(S(N)(=O)=O)CC4)n[nH]c(=O)c2cc1OC [Compound No. 122, 7-(6,7-dimethoxy-4-oxo-3,4-dihydrophthalazin-1-yl)-3,4-dihydroisoquinoline-2(1H)-sulfamide] | < 1 µM
17 | COc1cc2c(-c3ccc4c(c3)CCN(S(N)(=O)=O)C4)n[nH]c(=O)c2cc1OC [Compound No. 130, 6-(6,7-dimethoxy-4-oxo-3,4-dihydrophthalazin-1-yl)-3,4-dihydroisoquinoline-2(1H)-sulfonamide hydrochloride] | 1 to 10 µM
18 | COc1cc2c(-c3ccc4c(c3)CCN(S(N)(=O)=O)C4)nn(C)c(=O)c2cc1OC [Compound No. 131, 6-(6,7-dimethoxy-3-methyl-4-oxo-3,4-dihydrophthalazin-1-yl)-3,4-dihydroisoquinoline-2(1H)-sulfonamide hydrochloride] | 1 to 10 µM
19 | CC(C)(C)OC(=O)NCC1CCN(c2n[nH]c(=O)c3ccccc23)CC1 [Compound No. 132, tert-butyl ((1-(4-oxo-3,4-dihydrophthalazin-1-yl)piperidin-4-yl)methyl)carbamate] | > 10 µM
20 | COc1cc2c(N3CCC(CNC(=O)OC(C)(C)C)CC3)n[nH]c(=O)c2cc1OC [Compound No. 133, tert-butyl ((1-(6,7-dimethoxy-4-oxo-3,4-dihydrophthalazin-1-yl)piperidin-4-yl)methyl)carbamate] | > 10 µM
21 | NCC1CCN(c2n[nH]c(=O)c3ccccc23)CC1 [Compound No. 134, 4-(4-(aminomethyl)piperidin-1-yl)phthalazin-1(2H)-one hydrochloride] | 1 to 10 µM
22 | COc1cc2c(N3CCC(CN)CC3)n[nH]c(=O)c2cc1OC [Compound No. 135, 4-(4-(aminomethyl)piperidin-1-yl)-6,7-dimethoxyphthalazin-1(2H)-one hydrochloride] | > 10 µM
23 | CC(C)(C)OC(=O)NS(=O)(=O)NCC1CCN(c2n[nH]c(=O)c3ccccc23)CC1 [Compound No. 136, tert-butyl N-((1-(4-oxo-3,4-dihydrophthalazin-1-yl)piperidin-4-yl)methyl)sulfamoyl carbamate] | > 10 µM
24 | COc1cc2c(N3CCC(CNS(=O)(=O)NC(=O)OC(C)(C)C)CC3)n[nH]c(=O)c2cc1OC [Compound No. 137, tert-butyl N-((1-(6,7-dimethoxy-4-oxo-3,4-dihydrophthalazin-1-yl)piperidin-4-yl)methyl)sulfamoyl carbamate] | > 10 µM
25 | COc1cc2c(N3CCC(CNS(N)(=O)=O)CC3)n[nH]c(=O)c2cc1OC [Compound No. 139, N-((1-(6,7-dimethoxy-4-oxo-3,4-dihydrophthalazin-1-yl)piperidin-4-yl)methyl)sulfamide hydrochloride] | < 1 µM
26 | COc1cc2c(Nc3ccc(NS(N)(=O)=O)cc3)nn(C)c(=O)c2cc1OC [Compound No. 140, N-(4-(6,7-dimethoxy-3-methyl-4-oxo-3,4-dihydrophthalazin-1-yl)-amino)phenyl)sulfamide hydrochloride] | > 10 µM
27 | COc1cc2c(Nc3cccc(NS(N)(=O)=O)c3)nn(C)c(=O)c2cc1OC [Compound No. 141, N-(3-(6,7-dimethoxy-3-methyl-4-oxo-3,4-dihydrophthalazin-1-yl)-amino)phenyl)sulfamide hydrochloride] | 1 to 10 µM
28 | COc1cc2c(Cc3ccccc3)n[nH]c(=O)c2cc1OC [Compound No. 144, 4-benzyl-6,7-dimethoxyphthalazin-1(2H)-one] | > 10 µM
29 | COc1cc2c(Cc3cccc(NC(=O)OC(C)(C)C)c3)n[nH]c(=O)c2cc1OC [Compound No. 145, tert-butyl (3-((6,7-dimethoxy-4-oxo-3,4-dihydrophthalazin-1-yl)methyl)phenyl)carbamate] | > 10 µM
30 | COc1cc2c(Cc3cccc(NC(=O)OC(C)(C)C)c3)nn(C)c(=O)c2cc1OC [Compound No. 146, tert-butyl (3-((6,7-dimethoxy-3-methyl-4-oxo-3,4-dihydrophthalazin-1-yl)methyl)phenyl)carbamate] | > 10 µM
31 | Cn1nc(Cc2ccc(NC(=O)OC(C)(C)C)cc2)c2ccccc2c1=O [Compound No. 148, tert-butyl (4-((3-methyl-4-oxo-3,4-dihydrophthalazin-1-yl)methyl)phenyl)carbamate] | > 10 µM
32 | COc1cc2c(Cc3ccc(NC(=O)OC(C)(C)C)cc3)n[nH]c(=O)c2cc1OC [Compound No. 149, tert-butyl (4-((6,7-dimethoxy-4-oxo-3,4-dihydrophthalazin-1-yl)methyl)phenyl)carbamate] | > 10 µM
33 | COc1cc2c(Cc3ccc(NC(=O)OC(C)(C)C)cc3)nn(C)c(=O)c2cc1OC [Compound No. 150, tert-butyl (4-((6,7-dimethoxy-3-methyl-4-oxo-3,4-dihydrophthalazin-1-yl)methyl)phenyl)carbamate] | > 10 µM
